What was measured:
[1] = test system: progesterone receptor (PR); assay: Uterine progesterone receptor levels, hydroxyapatite assay (Example 8); format: in vivo, female Sprague-Dawley rats
Description: (§1) The animals were terminated by cervical dislocation. Livers were perfused with ice-cold TEDG buffer (10 mM Tris-HCl, 1.5 mM EDTA-4Na, 1 mM dithiothreitol, 10% glycerol (v/v), pH 7.4). Following perfusion in situ, livers were removed, weighed, and homogenized in ice-cold TEDG buffer. Uteri were also removed, weighed, and homogenized in ice-cold buffer. The homogenates were then centrifuged at 800×g ([…]) for 15 minutes and the nuclear pellets were stored at -80° C. The supernatants were further centrifuged at 180,000× g for 1.5 hours. The cytosolic supernatant was also stored at -80° C. Estrogen and progesterone receptor levels were determined within 7 days.
(§2) Estrogen (ER) and progesterone (PR) receptor levels were determined by the hydroxyapatite assay as described by Clark et al. (J. Steroid Biochem. 16:323-328, 1982) and incorporated herein by reference. […] Following the incubations, samples were counted and specific binding was calculated by subtraction of nonspecific from total binding. Assuming one steroid molecule binds to one estrogen/progesterone receptor, the number of moles of receptor can be calculated given the specific activity of the radioligand. The data presented in Tables 1 through 6 are means ± SD using at least four animals per treatment group. Significant differences were determined by analysis of variance.

[2] = test system: estrogen receptor (ER); assay: Uterine estrogen receptor levels, hydroxyapatite assay (Example 8); format: in vivo, female Sprague-Dawley rats
Description: A second group of animals was similarly treated with corn oil, TCDD, MCDF, or TCDD plus MCDF, all administered in corn oil at 10 ml/kg and terminated 72 hours later.
as §1, §2

[3] = test system: female rat uterus; assay: Antiestrogenic effect on uterine wet weight, immature female Sprague-Dawley rats (Example 8); format: in vivo
[4] = Table 3: 50 μmol/kg + E-2 (2 × 10 μg/rat)
[5] = Table 3: compound alone, 50 μmol/kg (17β-estradiol: 2 × 10 μg/rat)
[6] = 150 μmol/kg + E-2 (2 × 10 μg/rat), run A
[7] = compound alone, 150 μmol/kg (17β-estradiol: 2 × 10 μg/rat), run A
[8] = 150 μmol/kg + E-2 (2 × 10 μg/rat), run B
[9] = compound alone, 150 μmol/kg (17β-estradiol: 2 × 10 μg/rat), run B

| Structure (SMILES) | Progesterone Receptor Levels, Cytosolic [1, 4] [fmol/mg protein] | Progesterone Receptor Levels, Nuclear [1, 4] [fmol/mg protein] | Progesterone Receptor Levels, Cytosolic [1, 5] [fmol/mg protein] | Progesterone Receptor Levels, Nuclear [1, 5] [fmol/mg protein] | Estrogen Receptor Levels, Cytosolic [2, 4] [fmol/mg protein] | Estrogen Receptor Levels, Nuclear [2, 4] [fmol/mg protein] | Estrogen Receptor Levels, Cytosolic [2, 5] [fmol/mg protein] | Estrogen Receptor Levels, Nuclear [2, 5] [fmol/mg protein] | Uterine Wet Weight [3, 4] [% body wt] | Uterine Wet Weight [3, 5] [% body wt] | further results |
| --- | --- | --- | --- | --- | --- | --- | --- | --- | --- | --- | --- |
| Cc1cc2c(cc1Br)oc1cc(Br)c(Br)cc12 | 505 ± 35 | 221 ± 15 | 362 ± 22 | 270 ± 16 | 133.3 ± 6.7 | 80.0 ± 4.8 | 128.2 ± 7.7 | 64.3 ± 4.6 | 0.259 ± 0.020 | 0.153 ± 0.003 | – |
| Cc1cc2c(cc1Cl)oc1cc(Cl)c(Cl)cc12 | 607 ± 36 | 204 ± 12 | 554 ± 33 | 177 ± 11 | 85.7 ± 4.3 | 25.7 ± 1.3 | 113.9 ± 5.7 | 47.8 ± 2.4 | 0.237 ± 0.007 | 0.138 ± 0.026 | – |
| Clc1cc(Cl)c2c(c1)oc1c(Cl)cc(Cl)cc12 [1,3,6,8-tetraCDF] | – | – | – | – | – | – | – | – | – | – | Progesterone Receptor Levels, Cytosolic [1, 6]: 798 ± 83 fmol/mg protein; Progesterone Receptor Levels, Nuclear [1, 6]: 291 ± 71 fmol/mg protein; Progesterone Receptor Levels, Cytosolic [1, 7]: 571 ± 49 fmol/mg protein; Progesterone Receptor Levels, Nuclear [1, 7]: 199 ± 46 fmol/mg protein; Estrogen Receptor Levels, Cytosolic [2, 6]: 75.5 ± 17.3 fmol/mg protein; Estrogen Receptor Levels, Nuclear [2, 6]: 16.1 ± 2.3 fmol/mg protein; Estrogen Receptor Levels, Cytosolic [2, 7]: 55.2 ± 5.6 fmol/mg protein; Estrogen Receptor Levels, Nuclear [2, 7]: 18.5 ± 3.8 fmol/mg protein; Uterine Wet Weight [3, 6]: 0.187 ± 0.020 % body wt; Uterine Wet Weight [3, 7]: 0.123 ± 0.004 % body wt |
| CCc1cc(Cl)cc2c1oc1cc(Cl)cc(Cl)c12 [6-Ethyl-1,3,8-triCDF] | – | – | – | – | – | – | – | – | – | – | Progesterone Receptor Levels, Cytosolic [1, 8]: 1601 ± 121 fmol/mg protein; Progesterone Receptor Levels, Nuclear [1, 8]: 277 ± 19 fmol/mg protein; Progesterone Receptor Levels, Cytosolic [1, 9]: 688 ± 49 fmol/mg protein; Progesterone Receptor Levels, Nuclear [1, 9]: 243 ± 17 fmol/mg protein; Estrogen Receptor Levels, Cytosolic [2, 8]: 104.3 ± 77.1 fmol/mg protein; Estrogen Receptor Levels, Nuclear [2, 8]: 34.9 ± 1.8 fmol/mg protein; Estrogen Receptor Levels, Cytosolic [2, 9]: 98.4 ± 5.5 fmol/mg protein; Estrogen Receptor Levels, Nuclear [2, 9]: 33.9 ± 1.7 fmol/mg protein; Uterine Wet Weight [3, 8]: 0.226 ± 0.013 % body wt; Uterine Wet Weight [3, 9]: 0.128 ± 0.007 % body wt |
